Earlier results in US11975015B2, “Methods for treating degenerative disc disease and chronic lower back pain” (ECM Biologics, Inc., priority 2017, dated 2024).

System: chronic low back pain (CLBP)
Settings: amoxicillin 500 mg-clavulanic acid 125 mg three times a day for 100 days; Albert 2013, Palazzo 2017

amoxicillin-clavulanic acid
treatment outcome in CLBP patients: mixed results
